Results on one compound are retold here after BindingDB's records for doi:10.7270/Q22F7KVM (The Scripps Research Institute Molecular Screening Center, 2009).

The target of this experiment is T1, Guanyl-specific ribonuclease T1 (Aspergillus oryzae (strain ATCC 42149 / RIB 40), UniProt P00651).
T1 sequence (P00651 whole entry): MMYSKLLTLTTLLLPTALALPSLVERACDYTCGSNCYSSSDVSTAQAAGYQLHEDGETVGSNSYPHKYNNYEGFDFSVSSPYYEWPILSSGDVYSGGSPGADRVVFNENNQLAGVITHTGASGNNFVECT
The experiment in a line: inhibition of ribonuclease T1 activity – biochemical, fluorescence polarization, 1536-well, counter-screen for TPT1 inhibitor project, dose response (AID 2167).

Each structure is given as a SMILES string. pIC50: −log10 of the molar value.

The compound `Cc1ccc2nc(N=NCc3ccc([N+](=O)[O-])o3)nc(-c3ccccc3)c2c1` gave a pIC50 of less than 4.25.
